The values below are quoted from earlier work in patent publication US20120028902A1, “PEPTIDE AVAILABILITY” (priority 2008, published 2012).

Consider `CC[C@H](C)[C@H](N)C(=O)N1CCC[C@H]1C(=O)N1CCC[C@H]1C(=O)O` [IPP, isoleucine-proline-proline], for which the “Further increase of plasma IPP AUC when consumed with the meal” value (yoghurt drink consumed with breakfast, versus fasted state) is recorded as 30%. For the setting “yoghurt drink drunk in overnight fasted state 30 min prior to breakfast”, the “Increase of plasma IPP level (area under the concentration vs. time curve) compared to a control drink” value was “more than two-fold”.
